Assay results from PubChem BioAssay AID1259407 (Chemical Carcinogenesis Research Information System (CCRIS), 2018).
The source made the active and inactive calls. No rule for the calls is given here.

Tested on: CCRIS mutagenicity, Ames/micronucleus/aberration tests
Test: CCRIS mutagenicity studies
[1] = Test System: AMES SALMONELLA TYPHIMURIUM, Strain/Indicator: TA100, Metabolic Activation: NONE, Method: STANDARD PLATE
[2] = Test System: AMES SALMONELLA TYPHIMURIUM, Strain/Indicator: TA98, Metabolic Activation: NONE, Method: PREINCUBATION
[3] = Test System: AMES SALMONELLA TYPHIMURIUM, Strain/Indicator: TA98, Metabolic Activation: NONE, Method: STANDARD PLATE
[4] = Test System: AMES SALMONELLA TYPHIMURIUM, Strain/Indicator: TA98, Metabolic Activation: RAT, LIVER, S-9, AROCLOR 1254, Method: STANDARD PLATE
[5] = Test System: AMES SALMONELLA TYPHIMURIUM, Strain/Indicator: TA100, Metabolic Activation: RAT, LIVER, S-9, AROCLOR 1254, Method: STANDARD PLATE
[6] = Test System: AMES SALMONELLA TYPHIMURIUM, Strain/Indicator: TA1535, Metabolic Activation: NONE, Method: STANDARD PLATE
[7] = Test System: AMES SALMONELLA TYPHIMURIUM, Strain/Indicator: TA98(1,8-DNP6), Metabolic Activation: NONE, Method: STANDARD PLATE

CC(C)(O)[C@H]1Cc2cc3ccc(=O)oc3cc2O1
mutagenic call (Test System: AMES SALMONELLA TYPHIMURIUM, Strain/Indicator: TA92, Metabolic Activation: NONE, Method: SPOT TEST): active; positive | mutagenic call (Test System: AMES SALMONELLA TYPHIMURIUM, Strain/Indicator: TA92, Metabolic Activation: RAT, LIVER, S-9, AROCLOR 1254, Method: SPOT TEST): active; positive | mutagenic call (Test System: AMES SALMONELLA TYPHIMURIUM, Strain/Indicator: TA94, Metabolic Activation: NONE, Method: SPOT TEST): inactive; negative | mutagenic call (Test System: AMES SALMONELLA TYPHIMURIUM, Strain/Indicator: TA94, Metabolic Activation: RAT, LIVER, S-9, AROCLOR 1254, Method: SPOT TEST): inactive; negative | mutagenic call (Test System: AMES SALMONELLA TYPHIMURIUM, Strain/Indicator: TA97, Metabolic Activation: NONE, Method: SPOT TEST): active; positive | mutagenic call (Test System: AMES SALMONELLA TYPHIMURIUM, Strain/Indicator: TA97, Metabolic Activation: RAT, LIVER, S-9, AROCLOR 1254, Method: SPOT TEST): active; positive | mutagenic call (Test System: AMES SALMONELLA TYPHIMURIUM, Strain/Indicator: TA98, Metabolic Activation: NONE, Method: SPOT TEST): active; positive | mutagenic call (Test System: AMES SALMONELLA TYPHIMURIUM, Strain/Indicator: TA98, Metabolic Activation: RAT, LIVER, S-9, AROCLOR 1254, Method: SPOT TEST): active; positive | mutagenic call (Test System: AMES SALMONELLA TYPHIMURIUM, Strain/Indicator: TA100, Metabolic Activation: NONE, Method: SPOT TEST): active; positive | mutagenic call [1]: active; positive | mutagenic call (Test System: AMES SALMONELLA TYPHIMURIUM, Strain/Indicator: TA100, Metabolic Activation: RAT, LIVER, S-9, AROCLOR 1254, Method: SPOT TEST): active; positive | mutagenic call (Test System: AMES SALMONELLA TYPHIMURIUM, Strain/Indicator: TA102, Metabolic Activation: NONE, Method: SPOT TEST): inactive; negative | mutagenic call (Test System: AMES SALMONELLA TYPHIMURIUM, Strain/Indicator: TA102, Metabolic Activation: RAT, LIVER, S-9, AROCLOR 1254, Method: SPOT TEST): inactive; negative

O=NN1CCSC1
mutagenic call [2]: inactive; negative | mutagenic call [3]: inactive; negative | mutagenic call (Test System: AMES SALMONELLA TYPHIMURIUM, Strain/Indicator: TA98, Metabolic Activation: RAT, LIVER, S-9, AROCLOR 1254, Method: PREINCUBATION): inactive; negative | mutagenic call [4]: active; positive | mutagenic call [1]: active; positive | mutagenic call (Test System: AMES SALMONELLA TYPHIMURIUM, Strain/Indicator: TA100, Metabolic Activation: RAT, LIVER, S-9, AROCLOR 1254, Method: PREINCUBATION): active; positive | mutagenic call [5]: active; positive | mutagenic call (Test System: UDS RAT PRIMARY HEPATOCYTES, Strain/Indicator: THY INCORP, Metabolic Activation: NONE): active; positive

CCCCN(C)N=O
mutagenic call (Test System: AMES SALMONELLA TYPHIMURIUM, Strain/Indicator: TA100, Metabolic Activation: RAT, LIVER, S-9, KC500 OR PHENOBARBITAL, Method: LIQUID SUSPENSION): active; positive

O=NN(CCCl)C(=O)NCCO
mutagenic call [6]: active; positive

O=C(/C=C/c1ccc([N+](=O)[O-])o1)N/N=C/c1ccc([N+](=O)[O-])o1
mutagenic call [7]: active; positive | mutagenic call (Test System: AMES SALMONELLA TYPHIMURIUM, Strain/Indicator: TA98(1,8-DNP6), Metabolic Activation: RAT, LIVER, S-9, 3-METHYLCHOLANTHRENE, Method: STANDARD PLATE): active; positive | mutagenic call (Test System: AMES SALMONELLA TYPHIMURIUM, Strain/Indicator: TA98(NR), Metabolic Activation: NONE, Method: STANDARD PLATE): active; positive | mutagenic call (Test System: AMES SALMONELLA TYPHIMURIUM, Strain/Indicator: TA98(NR), Metabolic Activation: RAT, LIVER, S-9, 3-METHYLCHOLANTHRENE, Method: STANDARD PLATE): active; positive | mutagenic call [3]: active; positive | mutagenic call (Test System: AMES SALMONELLA TYPHIMURIUM, Strain/Indicator: TA98, Metabolic Activation: RAT, LIVER, S-9, 3-METHYLCHOLANTHRENE, Method: STANDARD PLATE): active; positive

O=[N+]([O-])c1ccc2ccc3c4ccccc4cc4ccc1c2c43
mutagenic call (Test System: AMES SALMONELLA TYPHIMURIUM, Strain/Indicator: TA98(1,8-DNP6), Metabolic Activation: NONE): active; positive | mutagenic call (Test System: AMES SALMONELLA TYPHIMURIUM, Strain/Indicator: TA98 (1,8-DNP6), Metabolic Activation: NONE, Method: STANDARD PLATE): active; positive | mutagenic call (Test System: AMES SALMONELLA TYPHIMURIUM, Strain/Indicator: TA98(NR), Metabolic Activation: NONE): active; positive | mutagenic call (Test System: AMES SALMONELLA TYPHIMURIUM, Strain/Indicator: TA98(NR), Metabolic Activation: NONE, Method: PREINCUBATION): active; positive | mutagenic call (Test System: AMES SALMONELLA TYPHIMURIUM, Strain/Indicator: TA98 (NR), Metabolic Activation: NONE, Method: STANDARD PLATE): inactive; negative | mutagenic call (Test System: AMES SALMONELLA TYPHIMURIUM, Strain/Indicator: TA98, Metabolic Activation: NONE): active; positive | mutagenic call (Test System: AMES SALMONELLA TYPHIMURIUM, Strain/Indicator: TA98, Metabolic Activation: NONE', Method: STANDARD PLATE): active; positive | mutagenic call [2]: active; positive | mutagenic call [3]: active; positive | mutagenic call (Test System: AMES SALMONELLA TYPHIMURIUM, Strain/Indicator: TA98, Metabolic Activation: NONE, Method: STANDARD PLATE (ANAEROBIC)): active; positive | mutagenic call (Test System: AMES SALMONELLA TYPHIMURIUM, Strain/Indicator: TA98, Metabolic Activation: RAT, LIVER, HEPATOCYTES, AROCLOR 1254): active; positive | mutagenic call (Test System: AMES SALMONELLA TYPHIMURIUM, Strain/Indicator: TA98, Metabolic Activation: RAT, LIVER, S-9, AROCLOR 1254): active; positive | mutagenic call [1]: active; positive | mutagenic call (Test System: CHINESE HAMSTER OVARY, Strain/Indicator: CHO-K1-BH4 (HGPRT), Metabolic Activation: NONE): inactive; negative | mutagenic call (Test System: CHINESE HAMSTER OVARY, Strain/Indicator: CHO-K1-BH4 (HGPRT), Metabolic Activation: RAT, LIVER, S-9, 3-METHYLCHOLANTHRENE): active; positive | mutagenic call (Test System: CHO/HGPRT, Strain/Indicator: CHO-K1-BH4, Metabolic Activation: NONE): inactive; negative | mutagenic call (Test System: CHO/HGPRT, Strain/Indicator: CHO-K1-BH4, Metabolic Activation: RAT, LIVER, HEPATOCYTES): inactive; negative | mutagenic call (Test System: CHO/HGPRT, Strain/Indicator: CHO-K1-BH4, Metabolic Activation: RAT, LIVER, HEPATOCYTES, 3-METHYLCHOLANTHRENE): inactive; negative | mutagenic call (Test System: CHO/HGPRT, Strain/Indicator: CHO-K1-BH4, Metabolic Activation: RAT, LIVER, HEPATOCYTES, AROCLOR 1254): inactive; negative | mutagenic call (Test System: CHO/HGPRT, Strain/Indicator: CHO-K1-BH4, Metabolic Activation: RAT, LIVER, S-9): inactive; negative | mutagenic call (Test System: CHO/HGPRT, Strain/Indicator: CHO-K1-BH4, Metabolic Activation: RAT, LIVER, S-9, 3-METHYLCHOLANTHRENE): active; positive | mutagenic call (Test System: CHO/HGPRT, Strain/Indicator: CHO-K1-BH4, Metabolic Activation: RAT, LIVER, S-9, AROCLOR 1254): active; positive

O=Cc1cccc2cccnc12
mutagenic call [3]: inactive; negative | mutagenic call [4]: inactive; negative | mutagenic call [1]: inactive; negative | mutagenic call [5]: active; positive | mutagenic call [6]: inactive; negative | mutagenic call (Test System: AMES SALMONELLA TYPHIMURIUM, Strain/Indicator: TA1535, Metabolic Activation: RAT, LIVER, S-9, AROCLOR 1254, Method: STANDARD PLATE): inactive; negative | mutagenic call (Test System: AMES SALMONELLA TYPHIMURIUM, Strain/Indicator: TA1537, Metabolic Activation: NONE, Method: STANDARD PLATE): inactive; negative | mutagenic call (Test System: AMES SALMONELLA TYPHIMURIUM, Strain/Indicator: TA1537, Metabolic Activation: RAT, LIVER, S-9, AROCLOR 1254, Method: STANDARD PLATE): inactive; negative

Nc1ccc(/C=C\c2ccc([N+](=O)[O-])cc2)cc1
mutagenic call [7]: inactive; negative | mutagenic call (Test System: AMES SALMONELLA TYPHIMURIUM, Strain/Indicator: TA98(1,8-DNP6), Metabolic Activation: S-9, Method: STANDARD PLATE): active; positive | mutagenic call [3]: active; positive | mutagenic call [4]: active; positive | mutagenic call (Test System: AMES SALMONELLA TYPHIMURIUM, Strain/Indicator: TA98, Metabolic Activation: S-9, Method: STANDARD PLATE): active; positive | mutagenic call [1]: inactive; negative | mutagenic call [5]: active; positive | mutagenic call (Test System: AMES SALMONELLA TYPHIMURIUM, Strain/Indicator: TA100, Metabolic Activation: S-9, Method: STANDARD PLATE): active; positive
